# Test results taken from patent US10221163B2 (priority 2015, dated 2019).
# Read-outs that look alike come from different tables or passages of the source.
# Assays:
# [1] = target: VIM-1 (Pseudomonas aeruginosa (strain ATCC 15692 / DSM 22644 / CIP 104116 / JCM 14847 / LMG 12228 / 1C / PRS 101 / PAO1), UniProt A0A0F7KYQ8); assay: biochemical; conditions: CCF2-FA substrate, 30 pM enzyme, 2 hours at 25° C.
# In short: (§1)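 Class B activity is measured in the presence of compound by fluorescence with CCF2-FA after a 2-hour incubation at 25° C. IC50 is taken from a 4-parameter fit of semi-logarithmic dose-response data.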
# [2] = system: Pseudomonas aeruginosa efflux+ (MB9798), IMP-1; type: cell-based; set-up: Concentration of metallo-β-lactamase inhibitor which restores susceptibility of efflux + (MB9798) strain to imipenem: unit not given here; conditions: efflux+ MB9798; imipenem at 2 μg/mL; in the presence of a class A, C, D serine β-lactamase inhibitor closely related to relebactam
# In short: (§2)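 Microbroth MIC tests in PAO1-background strains with fixed imipenem and/or ceftazidime, usually at the CLSI breakpoint, plus fixed class A/C β-lactamase inhibitor against AmpC. MBL inhibitor titrated; concentration restoring susceptibility recorded and compared as fold difference between efflux+ MB9798 and efflux− MB9799.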
# [3] = system: Pseudomonas aeruginosa MB9798 vs MB9799; conditions: fold difference between efflux+ (MB9798) and efflux− (MB9799) strains; imipenem at 2 μg/mL
# In short: as §2
# [4] = target: IMP-1 (Serratia marcescens, UniProt P52699); assay: biochemical; type: biochemical; conditions: fluorescence assay, CCF2-FA substrate, 2 pM enzyme, 2 hours at 25° C.; read-out: IMP-1 IC50
# Chain of IMP-1 (P52699 whole entry, looked up, species assumed): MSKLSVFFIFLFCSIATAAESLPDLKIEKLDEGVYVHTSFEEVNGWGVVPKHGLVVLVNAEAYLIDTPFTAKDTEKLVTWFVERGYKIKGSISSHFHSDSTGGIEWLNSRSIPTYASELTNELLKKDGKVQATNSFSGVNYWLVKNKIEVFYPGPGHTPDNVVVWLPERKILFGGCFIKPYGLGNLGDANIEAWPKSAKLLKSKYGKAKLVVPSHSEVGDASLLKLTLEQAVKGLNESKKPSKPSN
# In short: as §1
# [5] = target: NDM-1 (Klebsiella pneumoniae, UniProt C7C422); assay: biochemical; type: biochemical; conditions: fluorescence assay, CCF2-FA substrate, 1 pM enzyme, 2 hours at 25° C.; read-out: NDM-1 IC50
# Chain of NDM-1 (C7C422 whole entry, looked up, species assumed): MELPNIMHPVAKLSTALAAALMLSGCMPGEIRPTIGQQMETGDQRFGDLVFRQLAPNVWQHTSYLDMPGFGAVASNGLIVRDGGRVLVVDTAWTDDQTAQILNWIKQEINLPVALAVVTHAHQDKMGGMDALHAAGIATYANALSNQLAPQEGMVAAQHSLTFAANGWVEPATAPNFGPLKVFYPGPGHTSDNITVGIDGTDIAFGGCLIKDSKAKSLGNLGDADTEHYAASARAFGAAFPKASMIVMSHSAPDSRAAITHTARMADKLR
# In short: as §1
# [6] = system: Serratia marcescens expressing IMP-1 (CL5741); type: cell-based; conditions: IMP-1 strain CL5741, with imipenem 1 μg/ml, 95% inhibition of growth
# In short: (§3)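 Clinical strains grown overnight on blood agar at 35°C, colonies suspended in saline, diluted 1:100 into 1.1×CAMHB. Test compound titrated with imipenem at 1 μg/ml; incubated 22–24 h at 35°C, growth read by absorbance.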
# [7] = system: Klebsiella pneumoniae expressing VIM-1 (IHMA599644); type: cell-based; conditions: VIM-1 strain IHMA599644, with imipenem 1 μg/ml, 95% inhibition of growth
# In short: as §3
# [8] = system: Escherichia coli expressing NDM-1 (CLB30005, CLB30016); type: cell-based; conditions: NDM-1 strain, with imipenem 1 μg/ml, 95% inhibition of growth
# In short: as §3
# [9] = system: Pseudomonas aeruginosa efflux− (MB9799), IMP-1; type: cell-based; conditions: efflux− MB9799; imipenem at 2 μg/mL; in the presence of a class A, C, D serine β-lactamase inhibitor closely related to relebactam
# In short: as §2
# [10] = fluorescence assay, read-out: VIM-1 IC50
SMILES,"IC50 ([1]; VIM-1 IC50, fluorescence assay) [pM]",Concentration of metallo-β-lactamase inhibitor which restores susceptibility of efflux + (MB9798) strain to imipenem [2],Efflux ratio [3],IC50 [4] [pM],IC50 [5] [pM],Serratia marcescens MITC95 [6] [µM],Klebsiella pneumoniae MITC95 [7] [µM],Escherichia coli MITC95 [8] [µM],Concentration of metallo-β-lactamase inhibitor which restores susceptibility of efflux − (MB9799) strain to imipenem [9],"IC50 [1, 10] [pM]"
NC[C@H](CO)NS(=O)(=O)c1ccc(-c2cccc3[nH]nnc23)c(-c2nn[nH]n2)c1S(N)(=O)=O [Example 407],335,3.125,2.00,1350,140,1.563,3.125,0.7813,1.563,–
NC[C@H](CO)NS(=O)(=O)c1ccc(-c2ccc(N)nc2)c(-c2nn[nH]n2)c1S(N)(=O)=O [Example 408],–,1.563,1.00,684,421,0.7813,3.125,0.09766,1.563,394
NC[C@@H](CO)NS(=O)(=O)c1ccc(-c2ccc(N)nc2)c(-c2nn[nH]n2)c1S(N)(=O)=O [Example 409],–,1.563,1.00,170,112,1.563,3.125,0.1953,1.563,184
Nc1ccc(-c2ccc(S(=O)(=O)N[C@H]3CNC[C@H]3O)c(S(N)(=O)=O)c2-c2nn[nH]n2)cn1 [Example 410],–,0.7813,1.00,682,322,0.7813,1.563,0.3906,0.7813,374
Nc1ccc(-c2ccc(S(=O)(=O)N[C@H]3CN[C@H](CO)C3)c(S(N)(=O)=O)c2-c2nn[nH]n2)cn1 [Example 411],–,1.563,1.00,408,117,1.563,3.125,0.7813,1.563,177
NS(=O)(=O)c1c(S(=O)(=O)N[C@@H]2CNC[C@@H]2O)ccc(-c2cccc3[nH]nnc23)c1-c1nn[nH]n1 [Example 412],–,1.563,0.50,2570,108,3.125,6.25,3.125,3.125,321
NC[C@H](N)CNS(=O)(=O)c1ccc(-c2ccc(N)nc2)c(-c2nn[nH]n2)c1S(N)(=O)=O [Example 415],–,1.563,1.00,801,361,1.172,3.125,0.1953,1.563,425
